From US12612401B2, “Crystalline forms of an S1P receptor modulator” (Oppilan Pharma Limited, priority 2022, dated 2026)
Blank lines part the entries; values can stand above or below the compound they belong to.

Assays:
[1] = Critical water activity study between Form 1 and Form 7; type: physicochemical; conditions: for XRPD result after slurry: RT, overnight
Source text: Critical water activity between anhydrous From 1 and hydrous Form 7 was investigated via slurry in MeOH/H2O system with various water activities at room temperature. After stirring overnight, the solids were isolated and analyzed by XRPD.

[2] = Thermodynamic stability relationship of anhydrates (heating; slurry competition); type: physicochemical; conditions: for XRPD result, slurry competition Form 6 and Form 1: five days
Description: As a result, slurry competition was performed for Form 6 and Form 1 in acetone and THF systems at 5° C., RT and 50° C. After stirring at desired temperature for five days, the solids were isolated and analyzed by XRPD.

[3] = Form 2 stability via slurry in acetone and methanol/water; type: physicochemical; conditions: solids isolated at 1 h, 3 h, 5 h, 29 h
Description: Form 2 stability was also evaluated via slurry in acetone and methanol/water at RT. Solids were isolated at 1 h, 3 h, 5 h and 29 h time points.

[4] = Solubility evaluation of Form 1 and Form 2 in DCM/MeOH; type: physicochemical; conditions: for concentration dissolved in DCM/MeOH: room temperature or 50° C.
Description: The solubility of Form 1 and Form 2 was evaluated in the same vehicle. Form 1 or Form 2 was added into DCM/MeOH and stirred to dissolve at room temperature or 50° C. A certain amount of HPMC-AS was then added into solution at room temperature, if a clear solution was obtained. Form 2 dissolved in DCM/MeOH at a concentration of 13 mg/mL, while Form 1 dissolved in a lower concentration, 10 mg/mL.

[5] = molecular target: T1, human S1P1 (Homo sapiens, UniProt P21453); assay: GTPγS binding assay (scintillation proximity assay); type: biochemical; conditions: S1P1 membrane from CHO cells expressing full-length human S1P1; GTPγ35S, 60 minutes
T1 construct: CHO-Ki Gαqi5 cells expression full-length human S1P1; expressed in transfected cells; host or cells: CHO-K1 Gαqi5 cells (printed 'CHO-Ki Gαqi5'), membranes
T1 sequence (P21453 whole entry): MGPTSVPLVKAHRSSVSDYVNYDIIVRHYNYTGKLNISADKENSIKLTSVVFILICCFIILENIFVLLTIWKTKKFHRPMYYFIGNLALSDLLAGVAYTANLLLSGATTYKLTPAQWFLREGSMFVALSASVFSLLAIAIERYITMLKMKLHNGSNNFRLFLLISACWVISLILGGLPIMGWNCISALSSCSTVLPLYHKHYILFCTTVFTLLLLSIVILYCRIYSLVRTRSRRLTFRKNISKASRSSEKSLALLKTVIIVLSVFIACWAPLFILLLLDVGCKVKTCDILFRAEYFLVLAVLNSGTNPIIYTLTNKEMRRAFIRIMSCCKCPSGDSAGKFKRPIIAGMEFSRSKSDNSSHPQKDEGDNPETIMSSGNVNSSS
Description: S1P1 membrane is prepared from CHO-Ki Gαqi5 cells expression full-length human S1P1. Scintillation proximity assay (SPA) is performed by incubating membranes, GTPγ^35S, and compounds at various concentrations for 60 minutes. Wheat germ agglutinin-coated SPA beads are added and incubated for 60 minutes before centrifugation and scintillation counting. EC50 data for Compound 1 found to be <1 μM.

[6] = Stability study of Form 1 on storage (XRPD and HPLC); type: physicochemical; conditions: 80° C. for one day; 25° C./60% RH and 40° C./75% RH for one week and one month
Description: Physicochemical stability was evaluated for Form 1 via storing samples under 80° C. for one day, 25° C./60% RH and 40° C./75% RH for one week and one month.

[7] = Dynamic vapor sorption (DVS); type: physicochemical; conditions: 25° C.
Description: DVS studies were performed using a DVS Intrinsic (SMS, UK). 10 to 20 mg of compound was transferred into the DVS and the weight change recorded with respect to a varying atmospheric humidity at 25° C. using the following parameters: • Drying at 25° C. until dm/dt<±0.002%/min • Min time: 10 min, Max time: 180 min • Equilibrium: 60 min • Cycle: 0, 5, 10, 20, 30, 40, 50, 60, 70, 80, 90, 80, 70, 60, 50, 40, 30, 20, 10, 5, 0 • Characterize the sample after the DVS experiment by XRPD

Compound: O=C1CC[C@@H](Oc2cc(Cl)c(-c3noc(-c4cn5cc(C(F)(F)F)cc(Cl)c5n4)n3)cc2Cl)CN1 [Form 7, (R)-5-(2,5-dichloro-4-(5-(8-chloro-6-(trifluoromethyl)imidazo[1,2-a]pyridin-2-yl)-1,2,4-oxadiazol-3-yl)phenoxy)piperidin-2-one]
- XRPD result after slurry ([1]; MeOH/H2O 0:1000, Aw 1.0): Form 1
- XRPD result after slurry ([1]; MeOH/H2O 219:781, Aw 0.9): Form 1
- XRPD result after slurry ([1]; MeOH/H2O 418:582, Aw 0.8): Form 1
- XRPD result after slurry ([1]; MeOH/H2O 573:427, Aw 0.7): Form 1
- XRPD result after slurry ([1]; MeOH/H2O 687:313, Aw 0.6): Form 1
- XRPD result after slurry ([1]; MeOH/H2O 775:225, Aw 0.5): Form 1
- XRPD result after slurry ([1]; MeOH/H2O 844:156, Aw 0.4): Form 1
- XRPD result after slurry ([1]; MeOH/H2O 893:107, Aw 0.3): Form 1
- XRPD result after slurry ([1]; MeOH/H2O 937:63, Aw 0.2): Form 1
- XRPD result after slurry ([1]; MeOH/H2O 1000:0, Aw 0.0): Form 1
- form conversion in MeOH/H2O slurry ([1]; all water activities at RT, stirring overnight): converted to Form 1

Compound: O=C1CC[C@@H](Oc2cc(Cl)c(-c3noc(-c4cn5cc(C(F)(F)F)cc(Cl)c5n4)n3)cc2Cl)CN1 [Form 6, (R)-5-(2,5-dichloro-4-(5-(8-chloro-6-(trifluoromethyl)imidazo[1,2-a]pyridin-2-yl)-1,2,4-oxadiazol-3-yl)phenoxy)piperidin-2-one]
- thermodynamic relationship to Form 5 ([2]; according to the Burger-Ramberger Rules): monotropically related to Form 5 and is thermodynamically more stable

Compound: O=C1CC[C@@H](Oc2cc(Cl)c(-c3noc(-c4cn5cc(C(F)(F)F)cc(Cl)c5n4)n3)cc2Cl)CN1 [Form 2, (R)-5-(2,5-dichloro-4-(5-(8-chloro-6-(trifluoromethyl)imidazo[1,2-a]pyridin-2-yl)-1,2,4-oxadiazol-3-yl)phenoxy)piperidin-2-one]
- XRPD analysis after slurry ([3]; slurry in acetone at RT): Form 1 formation in both solvents within one hour
- XRPD analysis after slurry ([3]; slurry in methanol/water at RT): Form 1 formation in both solvents within one hour
- Result (dissolution), Experiment A ([4]; DCM 3.679 g, MeOH 0.752 g, Form 2 0.05 g, HPMC-AS 0.150 g): Clear at room
- solubility compared with Form 1 ([4]; DCM/MeOH vehicle): better solubility than Form 1
- concentration dissolved in DCM/MeOH [4]: 13000 µg/mL

The remaining lines, values ahead:

- EC50 [5]: < 1000 nM
Compound: O=C1CC[C@@H](Oc2cc(Cl)c(-c3noc(-c4cn5cc(C(F)(F)F)cc(Cl)c5n4)n3)cc2Cl)CN1 [Compound 1, (R)-5-(2,5-dichloro-4-(5-(8-chloro-6-(trifluoromethyl)imidazo[1,2-a]pyridin-2-yl)-1,2,4-oxadiazol-3-yl)phenoxy)piperidin-2-one]

- form change during heating ([2]; heating, exothermic signal observed): Form 6 formed at elevated temperature
Compound: O=C1CC[C@@H](Oc2cc(Cl)c(-c3noc(-c4cn5cc(C(F)(F)F)cc(Cl)c5n4)n3)cc2Cl)CN1 [Form 5, (R)-5-(2,5-dichloro-4-(5-(8-chloro-6-(trifluoromethyl)imidazo[1,2-a]pyridin-2-yl)-1,2,4-oxadiazol-3-yl)phenoxy)piperidin-2-one]

- Result (dissolution on heating), Experiment E ([4]; DCM 1.633 g, MeOH 0.334 g, Form 1 0.0165 g, AcOH 0.0022 g, HPMC-AS 0.0549 g): Dissolved at 50 °C
- Result (clarity after stirring for 64 h), Experiment E ([4]; DCM 1.633 g, MeOH 0.334 g, Form 1 0.0165 g, AcOH 0.0022 g, HPMC-AS 0.0549 g, after stirring for 64 h): Clear at 25 °C after
- Result (dissolution), Experiment C ([4]; DCM 1.633 g, MeOH 0.334 g, Form 1 0.02 g, AcOH 0.0022 g, HPMC-AS 0.0664 g): Hazy at 50 °C
- Result (dissolution on heating), Experiment D ([4]; DCM 4.083 g, MeOH 0.834 g, Form 1 0.0414 g, HPMC-AS 0.1378 g): Dissolved at 50 °C
- Result (clarity after stirring for 64 h), Experiment D ([4]; DCM 4.083 g, MeOH 0.834 g, Form 1 0.0414 g, HPMC-AS 0.1378 g, after stirring for 64 h): Clear at 25 °C after
- Result (dissolution), Experiment B ([4]; DCM 4.083 g, MeOH 0.835 g, Form 1 0.05 g, HPMC-AS 0.166 g): Hazy at 50 °C
- concentration dissolved in DCM/MeOH [4]: 10000 µg/mL
- change in HPLC purity after storage (chemical stability) [6]: no substantial change in HPLC purity
- form change after storage (XRPD) [6]: no form change
- XRPD result, slurry competition Form 6 and Form 1 ([2]; THF, 5° C.): Form 1
- XRPD result, slurry competition Form 6 and Form 1 ([2]; THF, 50° C.): Form 1
- XRPD result, slurry competition Form 6 and Form 1 ([2]; THF, room temperature): Form 1
- XRPD result, slurry competition Form 6 and Form 1 ([2]; acetone, 5° C.): Form 1
- XRPD result, slurry competition Form 6 and Form 1 ([2]; acetone, 50° C.): Form 1
- XRPD result, slurry competition Form 6 and Form 1 ([2]; acetone, room temperature): Form 1
- hygroscopicity ([7]; DVS): slightly hygroscopic
- Post-DVS analysis by XRPD ([7]; after DVS cycle 0-90-0% RH): no change
- moisture uptake ([7]; between 0-80% RH): 0.3%
- relative stability versus Form 7 ([1]; MeOH/H2O slurry, water activities 0.0-1.0, RT): more stable under selected conditions
Compound: O=C1CC[C@@H](Oc2cc(Cl)c(-c3noc(-c4cn5cc(C(F)(F)F)cc(Cl)c5n4)n3)cc2Cl)CN1 [Form 1, (R)-5-(2,5-dichloro-4-(5-(8-chloro-6-(trifluoromethyl)imidazo[1,2-a]pyridin-2-yl)-1,2,4-oxadiazol-3-yl)phenoxy)piperidin-2-one]
